Data published in patent publication US8747846B2, “Compositions and methods for immunization against drug resistant Acinetobacter baumannii” (priority 2011, dated 2014).
Converted amounts (≈) assume the structure as drawn. Like-named read-outs stand apart in the source and are kept apart here.

What was measured:
Type in all cases: cell-based, Acinetobacter baumannii
[1] = test system: A. baumannii HUMC5; assay: microbe, parasite or virus in culture; conditions: for MIC: Acinetobacter baumannii
[2] = test system: A. baumannii HUMC4; assay: microbe, parasite or virus in culture; conditions: for MIC: Acinetobacter baumannii
[3] = test system: A. baumannii HUMC1; assay: microbe, parasite or virus in culture; conditions: for MIC: Acinetobacter baumannii
[4] = test system: A. baumannii HUMC6; assay: microbe, parasite or virus in culture; conditions: for MIC: Acinetobacter baumannii
[5] = test system: A. baumannii HUMC12; assay: microbe, parasite or virus in culture; conditions: for MIC: Acinetobacter baumannii
[6] = test system: A. baumannii ATCC 17978; assay: Antibacterial minimum inhibitory concentrations for clinical isolates; conditions: strain ATCC 17978; for MIC: Acinetobacter baumannii, ATCC17978
[7] = strain HUMC5, read-out: Antibacterial Minimum Inhibitory Concentrations
[8] = strain HUMC4, read-out: Antibacterial Minimum Inhibitory Concentrations
[9] = HUMC1, read-out: Antibacterial Minimum Inhibitory Concentrations
[10] = strain HUMC6, read-out: Antibacterial Minimum Inhibitory Concentrations
[11] = strain HUMC12, read-out: Antibacterial Minimum Inhibitory Concentrations
[12] = strain HUMC1, read-out: Antibacterial Minimum Inhibitory Concentrations

With Ampicillin/sulbactam the “Antibacterial Minimum Inhibitory Concentrations” value ([1]; strain HUMC5) was 32/16, the “Antibacterial Minimum Inhibitory Concentrations” value ([2]; strain HUMC4) was 32/16 and the “Antibacterial Minimum Inhibitory Concentrations” value ([3]; strain HUMC1) was 16/8. The “Antibacterial Minimum Inhibitory Concentrations” value ([4]; strain HUMC6) was 32/16 and the “Antibacterial Minimum Inhibitory Concentrations” value ([5]; strain HUMC12) was 32/16.
With Gentamicin the “Antibacterial Minimum Inhibitory Concentrations” value [6] was 8 µg/mL, the “Antibacterial Minimum Inhibitory Concentrations” value ([1]; strain HUMC5) was >128 µg/mL and the “Antibacterial Minimum Inhibitory Concentrations” value ([2]; strain HUMC4) was >128 µg/mL. For the same compound, the “Antibacterial Minimum Inhibitory Concentrations” value ([3]; strain HUMC1) was >128 µg/mL, the “Antibacterial Minimum Inhibitory Concentrations” value ([4]; strain HUMC6) was >128 µg/mL and the “Antibacterial Minimum Inhibitory Concentrations” value ([5]; strain HUMC12) was >128 µg/mL.
With `NCC[C@H](O)C(=O)N[C@@H]1C[C@H](N)[C@@H](O[C@H]2O[C@H](CN)[C@@H](O)[C@H](O)[C@H]2O)[C@H](O)[C@H]1O[C@H]1O[C@H](CO)[C@@H](O)[C@H](N)[C@H]1O` [Amikacin] the MIC [6] was 8 µg/mL (≈ 13.7 µM), the MIC [1, 7] was > 128 µg/mL and the MIC [2, 8] was > 128 µg/mL. For the same compound, the MIC [3, 9] was > 128 µg/mL, the MIC [4, 10] was > 128 µg/mL and the MIC [5, 11] was > 128 µg/mL.
In the case of `C[C@@H](O)[C@H]1C(=O)N2C(C(=O)O)=C(S[C@@H]3CN[C@H](CNS(N)(=O)=O)C3)[C@H](C)[C@H]12` [Doripenem], the MIC [6] is reported as 0.5 µg/mL (≈ 1.19 µM), the MIC [1, 7] is reported as 8 µg/mL (≈ 19 µM) and the MIC [2, 8] is reported as 4 µg/mL (≈ 9.51 µM). The MIC [3, 12] was 16 µg/mL (≈ 38 µM), the MIC [4, 10] was 4 µg/mL (≈ 9.51 µM) and the MIC [5, 11] was 8 µg/mL (≈ 19 µM).
`C[C@@H](O)[C@H]1C(=O)N2C(C(=O)O)=C(S[C@@H]3CN[C@H](C(=O)N(C)C)C3)[C@H](C)[C@H]12` [Meropenem] showed an MIC [6] of 0.25 µg/mL (≈ 0.652 µM), an MIC [1, 7] of 8 µg/mL (≈ 20.9 µM) and an MIC [2, 8] of 8 µg/mL (≈ 20.9 µM). For the same compound, the MIC [3, 9] was 32 µg/mL (≈ 83.4 µM), the MIC [4, 10] was 8 µg/mL (≈ 20.9 µM) and the MIC [5, 11] was 4 µg/mL (≈ 10.4 µM).
For `C[C@@H](O)[C@H]1C(=O)N2C(C(=O)O)=C(SCCN=CN)C[C@H]12` [Imipenem], the MIC [6] was 0.25 µg/mL (≈ 0.835 µM), the MIC [1, 7] was 4 µg/mL (≈ 13.4 µM) and the MIC [2, 8] was 4 µg/mL (≈ 13.4 µM). The MIC [3, 12] was 16 µg/mL (≈ 53.4 µM), the MIC [4, 10] was 4 µg/mL (≈ 13.4 µM) and the MIC [5, 11] was 2 µg/mL (≈ 6.68 µM).
Work on `CN(C)c1cc(NC(=O)CNC(C)(C)C)c(O)c2c1C[C@H]1C[C@H]3[C@H](N(C)C)C(O)=C(C(N)=O)C(=O)[C@@]3(O)C(O)=C1C2=O` [Tigecycline] yielded an MIC [6] of 0.25 µg/mL (≈ 0.427 µM), an MIC ([1]; HUMC5, read-out: Antibacterial Minimum Inhibitory Concentrations) of 4 µg/mL (≈ 6.83 µM) and an MIC ([2]; HUMC4, read-out: Antibacterial Minimum Inhibitory Concentrations) of 4 µg/mL (≈ 6.83 µM). For the same compound, the MIC [3, 9] was 4 µg/mL (≈ 6.83 µM), the MIC ([4]; HUMC6, read-out: Antibacterial Minimum Inhibitory Concentrations) was 4 µg/mL (≈ 6.83 µM) and the MIC ([5]; HUMC12, read-out: Antibacterial Minimum Inhibitory Concentrations) was 4 µg/mL (≈ 6.83 µM).
Compound `C[C@@H](O)[C@H]1C(=O)N2C(C(=O)O)=C(S[C@@H]3CN[C@H](C(=O)Nc4cccc(C(=O)O)c4)C3)[C@H](C)[C@H]12` [Ertapenem] has an MIC [6] of 4 µg/mL (≈ 8.41 µM), an MIC [1, 7] of 32 µg/mL (≈ 67.3 µM) and an MIC [2, 8] of 32 µg/mL (≈ 67.3 µM). The MIC [3, 12] was 128 µg/mL (≈ 269 µM), the MIC [4, 10] was 32 µg/mL (≈ 67.3 µM) and the MIC [5, 11] was 16 µg/mL (≈ 33.6 µM).
With Pipercillin/tazobactam the “Antibacterial Minimum Inhibitory Concentrations” value ([1]; strain HUMC5) was <128/4, the “Antibacterial Minimum Inhibitory Concentrations” value ([2]; strain HUMC4) was <128/4 and the “Antibacterial Minimum Inhibitory Concentrations” value ([3]; strain HUMC1) was <128/4. For the same compound, the “Antibacterial Minimum Inhibitory Concentrations” value ([4]; strain HUMC6) was <128/4 and the “Antibacterial Minimum Inhibitory Concentrations” value ([5]; strain HUMC12) was <128/4.
For Colistin, the “Antibacterial Minimum Inhibitory Concentrations” value [6] was 2 µg/mL, the “Antibacterial Minimum Inhibitory Concentrations” value ([1]; strain HUMC5) was 2 µg/mL and the “Antibacterial Minimum Inhibitory Concentrations” value ([2]; strain HUMC4) was 2 µg/mL. For the same compound, the “Antibacterial Minimum Inhibitory Concentrations” value ([3]; strain HUMC1) was 2 µg/mL, the “Antibacterial Minimum Inhibitory Concentrations” value ([4]; strain HUMC6) was 2 µg/mL and the “Antibacterial Minimum Inhibitory Concentrations” value ([5]; strain HUMC12) was 2 µg/mL.
